Laboratory results from patent US8853359B2, “Endokinin C/D-derived peptides” (University of Miyazaki, priority 2009, dated 2014).
Entries after “also recorded” stand apart in the source; their conditions may differ. Square brackets hold non-standard residues; d marks the D form. Ends that are not written are not given here.

How the values were obtained:
[1] = tested on: substance P-induced scratching behavior; test: substance P-induced scratching behavior after intrathecal pre-administration of test peptide; assay type: in vivo, rat; conditions: for number of scratching events induced by substance P, relative to control group (saline+SP = 100%): 10^-3M (10 nmol/10 μl) peptide intrathecal, 10^-3M SP 30 minutes after peptide; for number of scratching events induced by substance P, relative to control group (saline+SP = 100%) / number of scratching events induced by substance P, relative to control group: FIG. 1; for scratching behavior induced by substance P / suppressive effects on scratching as administration interval is prolonged: Example 2, FIG. 2; for scratching behavior induced by substance P / suppressive effects on scratching as administration interval is prolonged / scratching behavior induced by substance P / suppressive effects: 10^-3M peptide; for scratching behavior induced by substance P / scratching behavior induced by substance P / suppressive effects: SP 4 hours after peptide; for scratching behavior induced by substance P: control about 380 scratching; for suppressive effects on scratching as administration interval is prolonged: interval 8 hours and then 14 hours; for scratching behavior induced by substance P / suppressive effects: Example 3, FIG. 3, control 380 scratching
Description: In Example 1, 10^−3M (10 nmol/10 μl) EKC/D or D-EKC/D (1), (2) or (3) was administered to intrathecally catheterized rats via catheters. After the predetermined time periods denoted on the horizontal axis in FIG. 1, the numbers of scratching events (scratching behavior) induced by intrathecal administration of 10^−3M (10 nmol/10 μl) substance P (hereafter, referred to as “SP”) were determined. Here, the expression “10^−3M (10 nmol/10 μl) EKC/D or D-EKC/D (1), (2), or (3) was administered” refers to a situation in which 10 μl in total of a solution (that is, 10^−3M solution) containing 10 nmol of EKC/D or D-EKC/D (1), (2), or (3) was all administered. The expression, “ . . . administration of 10^−3M substance P (10 nmol/10 μl)” refers to a situation in which 10 μl in total of a solution (that is, 10^−3M solution) containing 10 nmol of the substance was all administered. The same similarly applies below.
Meanwhile, saline (10 μl) was intrathecally administered to intrathecally catheterized rats via catheters and then, after 30 minutes, 10^−3M SP (10 nmol/10 μl) was intrathecally administered to the rats. The number of the thus induced scratching events was determined to be the number of scratching events in the control group. The control group is denoted with saline-4-SP in FIG. 1.
The vertical axis of the graph in FIG. 1 indicates changes in the numbers of scratching events (represented by relative values) due to administration of 10^−3M EKC/D or D-EKC/D (1), (2), or (3) when the number of scratching events (of untreated rats in a control group) induced by intrathecal administration of 10^−3M substance P was determined to be 100%. Meanwhile, the horizontal axis indicates the intervals between the administration of EKC/D, D-EKC/D (1), (2), or (3) and 10^−3M substance P. […]
The test was conducted with procedures similar to those in Example 1, except for 4 hours of interval between the administration of each test peptide and the administration of substance P. The concentration of each test peptide and that of substance P for administration were determined to be 10^−3M (10 nmol/10 μl), similarly to Example 1. The number of scratching events in the control group was determined with procedures similar to those in Example 1, such that substance P was administered at 30 minutes after administration of saline (10 μl) and then the number was determined.

[2] = tested on: SP-induced thermal hyperalgesia; test: SP-induced thermal hyperalgesia (withdrawal latency) after intrathecal pre-administration of peptide; assay type: in vivo, rat; conditions: 10^-3M (10 nmol/10 μl) peptide intrathecal, FIG. 7
Source text: In this test, the effects of intrathecal pre-administration with D-EKC/D (1), (2), and (3) on the induction of thermal hyperalgesia following intrathecal administration of SP were confirmed using as an index thermal hyperalgesia, which is one type of pain-related behavior. The effects can be evaluated based on withdrawal latency period, which is the time required for withdrawal response to take place after application of noxious thermal stimulation to plantar using infrared rays.
In Example 4, 10^−3M (10 nmol/10 μl) D-EKC/D (1), (2), or (3) was administered to intrathecally catheterized rats via catheters, intrathecal administration of 10^−6M (10 pmol/10 μl) SP was performed at 4 hours and at 8 hours after administration of D-EKC/D, the presence or the absence of hyperalgesia following intrathecal administration of SP was evaluated based on the time (latency period) required for withdrawal response to take place, the latency period following SP administration in rats pretreated with D-EKC/D and the latency period resulting from administration of SP alone were compared, and thus the effects of preadministration of D-EKC/D (1), (2), and (3) were evaluated.

[3] = 10^-3M peptide intrathecal, SP 1 hour after peptide
[4] = 10^-6M SP 4 hours later, saline about 20 seconds, SP about 13 seconds
[5] = 10^-3M (10 nmol/10 μl) Spantide I intrathecal, FIG. 6

With “Ala-Tyr-Gln-Leu-Glu-His-Thr-DTrp-Gln-DTrp-Leu-Leu-NH2 (AYQLEHTXQXLL; HELM PEPTIDE1{A.Y.Q.L.E.H.T.[dW].Q.[dW].L.L.[am]}$$$$V2.0; N-terminus assumed; SMILES CC(C)C[C@H](NC(=O)[C@H](CC(C)C)NC(=O)[C@@H](Cc1c[nH]c2ccccc12)NC(=O)[C@H](CCC(N)=O)NC(=O)[C@@H](Cc1c[nH]c2ccccc12)NC(=O)[C@@H](NC(=O)[C@H](Cc1c[nH]cn1)NC(=O)[C@H](CCC(=O)O)NC(=O)[C@H](CC(C)C)NC(=O)[C@H](CCC(N)=O)NC(=O)[C@H](Cc1ccc(O)cc1)NC(=O)[C@H](C)N)[C@@H](C)O)C(N)=O) [D-EKC/D (1)]” the “number of scratching events induced by substance P, relative to control group (saline+SP = 100%)” value [1] was “about 40%”, the “duration of suppressive effects on substance P-induced scratching behavior” value ([1]; 10^-3M peptide intrathecal, 10^-3M SP) was “almost the same as that of the EKC/D consisting only of L-type amino acids” and the “number of scratching events induced by substance P, relative to control group” value [1, 3] was “disappeared”. For the same substance, the “effect on latency period following administration of SP” value (“effect … of SP” for short) [2, 4] was “significantly attenuated” and the “effect … of SP” value ([2]; 10^-6M SP 8 hours later) was “differs from D-EKC/D (2) and (3) in duration of effectiveness”.

In the case of “Ala-Tyr-Gln-Leu-Glu-His-Thr-DTrp-Gln-Gly-Leu-Leu-NH2 (AYQLEHTXQGLL; HELM PEPTIDE1{A.Y.Q.L.E.H.T.[dW].Q.G.L.L.[am]}$$$$V2.0; N-terminus assumed; SMILES CC(C)C[C@H](NC(=O)[C@H](CC(C)C)NC(=O)CNC(=O)[C@H](CCC(N)=O)NC(=O)[C@@H](Cc1c[nH]c2ccccc12)NC(=O)[C@@H](NC(=O)[C@H](Cc1c[nH]cn1)NC(=O)[C@H](CCC(=O)O)NC(=O)[C@H](CC(C)C)NC(=O)[C@H](CCC(N)=O)NC(=O)[C@H](Cc1ccc(O)cc1)NC(=O)[C@H](C)N)[C@@H](C)O)C(N)=O) [D-EKC/D (2)]”, the “number of scratching events induced by substance P, relative to control group (saline+SP = 100%)” value [1] is reported as “about 20%”, the “number of scratching events induced by substance P, relative to control group” value [1, 3] is reported as “slight tendency of restoration” and the “number of scratching events induced by substance P, relative to control group” value ([1]; 10^-3M peptide intrathecal, administration interval of 45 minutes) is reported as “almost the same effects were exhibited”. For the same substance, the “effect … of SP” value [2, 4] was “significantly attenuated” and the “effect … of SP” value ([2]; 10^-6M SP 8 hours later) was “significant attenuation”.

In the case of “DArg-Pro-Lys-Pro-Gln-Gln-DTrp-Phe-DTrp-Leu-Leu-NH2 ([dR]PKPQQ[dW]F[dW]LL-NH2) [Spantide I, reference compound]”, the “duration of suppressive effects on substance P-induced scratching behavior” value [1, 5] is reported as no more than 30 min and the “effect on substance P-induced scratching behavior” value [1, 5] is reported as “suppressed”.

For “His-Thr-Phe-Gln-DTrp-Leu-Leu-NH2 (HTFQXLL; HELM PEPTIDE1{H.T.F.Q.[dW].L.L.[am]}$$$$V2.0; N-terminus assumed; SMILES CC(C)C[C@H](NC(=O)[C@H](CC(C)C)NC(=O)[C@@H](Cc1c[nH]c2ccccc12)NC(=O)[C@H](CCC(N)=O)NC(=O)[C@H](Cc1ccccc1)NC(=O)[C@@H](NC(=O)[C@@H](N)Cc1c[nH]cn1)[C@@H](C)O)C(N)=O) [D-EKC/D (6)]”, the “scratching behavior induced by substance P” value [1] was “significant suppressive effects were observed”, the “suppressive effects on scratching as administration interval is prolonged” value [1] was “attenuated” and the “scratching behavior induced by substance P / suppressive effects” value [1] was “attenuated”.

For “Leu-Glu-His-Thr-Phe-Gln-DTrp-Leu-Leu-NH2 (LEHTFQXLL; HELM PEPTIDE1{L.E.H.T.F.Q.[dW].L.L.[am]}$$$$V2.0; N-terminus assumed; SMILES CC(C)C[C@H](NC(=O)[C@H](CC(C)C)NC(=O)[C@@H](Cc1c[nH]c2ccccc12)NC(=O)[C@H](CCC(N)=O)NC(=O)[C@H](Cc1ccccc1)NC(=O)[C@@H](NC(=O)[C@H](Cc1c[nH]cn1)NC(=O)[C@H](CCC(=O)O)NC(=O)[C@@H](N)CC(C)C)[C@@H](C)O)C(N)=O) [D-EKC/D (4)]”, the “scratching behavior induced by substance P” value [1] was “never induced”, the “suppressive effects on scratching as administration interval is prolonged” value [1] was “gradually attenuated” and the “suppressive effects compared with [D-Trp^10]-EKC/D consisting of 12 amino acids” value ([1]; Example 2 discussion) was “suppressive effects almost similar to those of [D-Trp^10]-EKC/D”. For the same substance, the “scratching behavior induced by substance P / suppressive effects” value [1] was “attenuated”.

“Phe-Gln-DTrp-Leu-Leu-NH2 (FQXLL; HELM PEPTIDE1{F.Q.[dW].L.L.[am]}$$$$V2.0; N-terminus assumed; SMILES CC(C)C[C@H](NC(=O)[C@H](CC(C)C)NC(=O)[C@@H](Cc1c[nH]c2ccccc12)NC(=O)[C@H](CCC(N)=O)NC(=O)[C@@H](N)Cc1ccccc1)C(N)=O) [D-EKC/D (8)]” was tested, and the “scratching behavior induced by substance P / suppressive effects” value [1] was “Almost no suppressive effects; also recorded: almost the same as that of the control group”.

With “Thr-Phe-Gln-DTrp-Leu-Leu-NH2 (TFQXLL; HELM PEPTIDE1{T.F.Q.[dW].L.L.[am]}$$$$V2.0; N-terminus assumed; SMILES CC(C)C[C@H](NC(=O)[C@H](CC(C)C)NC(=O)[C@@H](Cc1c[nH]c2ccccc12)NC(=O)[C@H](CCC(N)=O)NC(=O)[C@H](Cc1ccccc1)NC(=O)[C@@H](N)[C@@H](C)O)C(N)=O) [D-EKC/D (7)]” the “scratching behavior induced by substance P / suppressive effects” value [1] was “attenuated; also recorded: minimum suppressive effects”.
